PubChem BioAssay AID330 (DTP/NCI, 2004)
Several values for one entry are separate records, joined by “and”; a condition that tells them apart may be missing. Equal entries are not always repeated. Inconclusive results and toxic doses are left out. Rule for the calls: active = survival T/C of 150% or more; inactive = T/C below 125% in these data.

System: P388 leukemia ip, CD2F1 mice, survival T/C
Assay: NCI In Vivo Anticancer Drug Screen. Data for tumor model P388 Leukemia (intraperitoneal) in CD2F1 (CDF1) mice
Settings: endpoint: median survival time, higher = longer survival
How it was run: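 Mice carrying the transplanted tumor received test compound or vehicle. Survival was recorded in each group, and the value is the treated-group measurement divided by that of the vehicle-treated control group.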

[1] = dose: 50.0 mg/kg/injection, schedule: Q01DX005 (ip), vehicle: Klucel (hydroxypropylcellulose) (HPC)
[2] = dose: 100.0 mg/kg/injection, schedule: Q01DX005 (ip), vehicle: Klucel (hydroxypropylcellulose) (HPC)
[3] = dose: 200.0 mg/kg/injection, schedule: Q01DX005 (ip), vehicle: Klucel (hydroxypropylcellulose) (HPC)
[4] = dose: 25.0 mg/kg/injection, schedule: Q01DX009 (ip), vehicle: saline
[5] = dose: 25.0 mg/kg/injection, schedule: Q01DX005 (ip), vehicle: Klucel (hydroxypropylcellulose) (HPC)

Measured: T/C

Nc1ccc(S(=O)c2ccc(N)cc2)cc1
inactive: dose: 6.25 mg/kg/injection, schedule: Q04DX003 (ip), vehicle: saline 118 % of control | dose: 12.5 mg/kg/injection, schedule: Q04DX003 (ip), vehicle: saline 107 % of control | dose: 25.0 mg/kg/injection, schedule: Q04DX003 (ip), vehicle: saline 104 % of control | dose: 50.0 mg/kg/injection, schedule: Q04DX003 (ip), vehicle: saline 109 % of control

COc1cc2c(c(OC)c1OC)-c1ccc(OC)c(=O)cc1C([N+](C)(C)C)CC2 (stereo not given)
inactive: dose: 2.5 mg/kg/injection, schedule: Q01DX009 (ip), vehicle: Klucel (hydroxypropylcellulose) (HPC) 94 % of control | dose: 5.0 mg/kg/injection, schedule: Q01DX009 (ip), vehicle: Klucel (hydroxypropylcellulose) (HPC) 100 % of control | dose: 10.0 mg/kg/injection, schedule: Q01DX009 (ip), vehicle: Klucel (hydroxypropylcellulose) (HPC) 103 % of control | dose: 20.0 mg/kg/injection, schedule: Q01DX009 (ip), vehicle: Klucel (hydroxypropylcellulose) (HPC) 100 % of control

c1ccc2c(c1)Cc1c(-c3noc4c3Cc3ccccc3-4)noc1-2
inactive: dose: 60.0 mg/kg/injection, schedule: Q01DX005 (ip), vehicle: Klucel + Tween-80 100 % of control | dose: 120.0 mg/kg/injection, schedule: Q01DX005 (ip), vehicle: Klucel + Tween-80 90 % of control | dose: 240.0 mg/kg/injection, schedule: Q01DX005 (ip), vehicle: Klucel + Tween-80 91 % of control

O=[N+]([O-])c1ccc(CSSCc2ccc([N+](=O)[O-])cc2)cc1
inactive: [1] 98 % of control | [2] 100 % of control | [3] 105 % of control

C(=NCCC[Si]12OCCN(CCO1)CCO2)c1ccc(C=NCCC[Si]23OCCN(CCO2)CCO3)cc1
inactive: [1] 95 % of control | [2] 97 % of control | [3] 95 % of control

Nc1nc2c(c(=O)[nH]1)CNC2=O
inactive: [4] 112 % of control | dose: 50.0 mg/kg/injection, schedule: Q01DX009 (ip), vehicle: saline 116 % of control | dose: 100.0 mg/kg/injection, schedule: Q01DX009 (ip), vehicle: saline 113 % of control

CCCOC1(C)CC(c2cc(OC)c(OC)c(OC)c2)c2cc3c(cc2O1)OCO3 (stereo not given)
inactive: dose: 60.0 mg/kg/injection, schedule: Q01DX005 (ip), vehicle: Klucel (hydroxypropylcellulose) (HPC) 93 % of control | dose: 120.0 mg/kg/injection, schedule: Q01DX005 (ip), vehicle: Klucel (hydroxypropylcellulose) (HPC) 91 % of control | dose: 240.0 mg/kg/injection, schedule: Q01DX005 (ip), vehicle: Klucel (hydroxypropylcellulose) (HPC) 91 % of control

CN(CC#N)Cc1ccccc1
inactive: dose: 7.5 mg/kg/injection, schedule: Q01DX005 (ip), vehicle: saline with Tween-80 95 % of control | dose: 15.0 mg/kg/injection, schedule: Q01DX005 (ip), vehicle: saline with Tween-80 96 % of control | dose: 30.0 mg/kg/injection, schedule: Q01DX005 (ip), vehicle: saline with Tween-80 97 % of control | dose: 60.0 mg/kg/injection, schedule: Q01DX005 (ip), vehicle: saline with Tween-80 103 % of control

CN1C(=O)C2SC(=NNc3ccccc3)SC1C(=O)N2C
inactive: dose: 100.0 mg/kg/injection, schedule: Q04DX003 (ip), vehicle: saline with Tween-80 106 % of control | dose: 200.0 mg/kg/injection, schedule: Q04DX003 (ip), vehicle: saline with Tween-80 120 % of control | dose: 400.0 mg/kg/injection, schedule: Q04DX003 (ip), vehicle: saline with Tween-80 100 % of control

CCOC(=O)c1cnc2c(ccc3cc(OC)ccc32)c1NCCCN(CC)CC
inactive: [5] 97 % of control | [1] 97 % of control | [2] 100 % of control | [3] 97 % of control

CCC(=O)Nc1n[nH]c(NC(=O)CC)n1
inactive: [1] 103 % of control | [2] 100 % of control | [3] 100 % of control

O=C1C=CC(=O)C(Sc2cccc3ccccc23)=C1
inactive: dose: 6.25 mg/kg/injection, schedule: Q01DX005 (ip), vehicle: Klucel (hydroxypropylcellulose) (HPC) 96 % of control | dose: 12.5 mg/kg/injection, schedule: Q01DX005 (ip), vehicle: Klucel (hydroxypropylcellulose) (HPC) 102 % of control and 97 % of control | [5] 93 % of control | [1] 98 % of control and 107 % of control | [2] 107 % of control | [3] 104 % of control

CC1OC(CC(=O)O)CC2=C1C(=O)c1c(O)cccc1C2=O (stereo not given)
inactive: dose: 3.13 mg/kg/injection, schedule: Q01DX009 (ip), vehicle: saline with Tween-80 94 % of control | dose: 6.25 mg/kg/injection, schedule: Q01DX009 (ip), vehicle: saline with Tween-80 115 % of control and 117 % of control | dose: 12.5 mg/kg/injection, schedule: Q01DX009 (ip), vehicle: saline with Tween-80 110 % of control and 115 % of control | dose: 25.0 mg/kg/injection, schedule: Q01DX009 (ip), vehicle: saline with Tween-80 101 % of control and 114 % of control

CC(CC(N)=O)Cc1ccccc1 (stereo not given)
inactive: dose: 100.0 mg/kg/injection, schedule: Q01DX001 (ip), vehicle: saline with Tween-80 104 % of control | dose: 200.0 mg/kg/injection, schedule: Q01DX001 (ip), vehicle: saline with Tween-80 103 % of control | dose: 400.0 mg/kg/injection, schedule: Q01DX001 (ip), vehicle: saline with Tween-80 104 % of control

O=c1cc(O)n(C2=NCCN2)[nH]1
inactive: dose: 60.0 mg/kg/injection, schedule: Q01DX005 (ip), vehicle: suspension in saline 97 % of control | dose: 120.0 mg/kg/injection, schedule: Q01DX005 (ip), vehicle: suspension in saline 97 % of control | dose: 240.0 mg/kg/injection, schedule: Q01DX005 (ip), vehicle: suspension in saline 105 % of control

Nc1ccc(S(=O)(=O)CCCl)cc1
inactive: dose: 12.5 mg/kg/injection, schedule: Q04DX003 (ip), vehicle: Klucel (hydroxypropylcellulose) (HPC) 96 % of control | dose: 25.0 mg/kg/injection, schedule: Q04DX003 (ip), vehicle: Klucel (hydroxypropylcellulose) (HPC) 102 % of control | dose: 50.0 mg/kg/injection, schedule: Q04DX003 (ip), vehicle: Klucel (hydroxypropylcellulose) (HPC) 105 % of control | dose: 100.0 mg/kg/injection, schedule: Q04DX003 (ip), vehicle: Klucel (hydroxypropylcellulose) (HPC) 107 % of control | dose: 200.0 mg/kg/injection, schedule: Q04DX003 (ip), vehicle: Klucel (hydroxypropylcellulose) (HPC) 112 % of control

O=[N+]([O-])c1ccc(/C(=C\c2ccc(-c3ccccc3)o2)S(=O)(=O)c2ccccc2)o1
inactive: dose: 12.5 mg/kg/injection, schedule: Q01DX009 (ip), vehicle: saline 89 % of control | [4] 89 % of control
